Measured values as given in ChEMBL document CHEMBL3045296, “Synthesis of aryloxyalkylamines as h5-HT1B agonists with potential analgesic activity” (Med Chem Res, 2009).
Values belong to the molecule of their own block, whether it stands above or below them.

What was measured:
[1] = biological target: 5-hydroxytryptamine receptor 1D (Homo sapiens, UniProt P28221); test: Binding affinity to Homo sapiens (human) 5HT1D receptor by radioligand binding assay
[2] = biological target: 5-hydroxytryptamine receptor 1B (Homo sapiens, UniProt P28222); test: Binding affinity to Homo sapiens (human) 5HT1B receptor by radioligand binding assay
Mus musculus [3] = test: Toxicity in Mus musculus (mouse) assessed as muscle twitching at 50 mg/kg, ip; assay type: organism-based, Muscle tissue; design: dose 50 mg/kg, route intraperitoneal; settings: in vivo
Mus musculus [4] = test: Toxicity in Mus musculus (mouse) assessed as irritability at 50 mg/kg, ip; assay type: organism-based; design: dose 50 mg/kg, route intraperitoneal; settings: in vivo
Mus musculus [5] = test: Toxicity in Mus musculus (mouse) assessed as protrusion of eyes at 50 mg/kg, ip; assay type: organism-based; design: dose 50 mg/kg, route intraperitoneal; settings: in vivo
Mus musculus [6] = test: Toxicity in Mus musculus (mouse) assessed as difficulties in respiration at 50 mg/kg, ip; assay type: organism-based; design: dose 50 mg/kg, route intraperitoneal; settings: in vivo
Mus musculus [7] = test: Toxicity in Mus musculus (mouse) assessed as skeletal muscle incoordination at 50 mg/kg, ip; assay type: organism-based, Muscle tissue; design: dose 50 mg/kg, route intraperitoneal; settings: in vivo
Mus musculus [8] = test: Toxicity in Mus musculus (mouse) assessed as epilepsy at 50 mg/kg, ip; assay type: organism-based; design: dose 50 mg/kg, route intraperitoneal; settings: in vivo
Mus musculus [9] = test: Toxicity in Mus musculus (mouse) assessed as tail and hair erection at 50 mg/kg, ip; assay type: organism-based; design: dose 50 mg/kg, route intraperitoneal; settings: in vivo
Mus musculus [10] = test: Toxicity in Mus musculus (mouse) assessed as excitation at 50 mg/kg, ip; assay type: organism-based; design: dose 50 mg/kg, route intraperitoneal; settings: in vivo
Mus musculus [11] = test: Analgesic activity in Mus musculus (mouse) assessed as writhing response at 75 mg/kg, ip relative to control; assay type: functional; settings: route intraperitoneal
Mus musculus [12] = test: Analgesic activity in Mus musculus (mouse) assessed as writhing response at 50 mg/kg, ip relative to control; assay type: functional; settings: route intraperitoneal
Mus musculus [13] = test: Analgesic activity in Mus musculus (mouse) assessed as writhing response at 25 mg/kg, ip relative to control; assay type: functional; settings: route intraperitoneal
Mus musculus [14] = test: Toxicity in Mus musculus (mouse) assessed as tremors at 50 mg/kg, ip; assay type: organism-based; design: dose 50 mg/kg, route intraperitoneal; settings: in vivo
Mus musculus [15] = test: Analgesic activity in Mus musculus (mouse) assessed as writhing response at 100 mg/kg, ip relative to control; assay type: functional; settings: route intraperitoneal
Mus musculus [16] = test: Toxicity in Mus musculus (mouse) assessed as tremors at 20 mg/kg, ip; assay type: organism-based; design: dose 20 mg/kg, route intraperitoneal; settings: in vivo
Mus musculus [17] = test: Toxicity in Mus musculus (mouse) assessed as irritability at 20 mg/kg, ip; assay type: organism-based; design: dose 20 mg/kg, route intraperitoneal; settings: in vivo
Mus musculus [18] = test: Toxicity in Mus musculus (mouse) assessed as difficulties in respiration at 20 mg/kg, ip; assay type: organism-based; design: dose 20 mg/kg, route intraperitoneal; settings: in vivo
Mus musculus [19] = test: Toxicity in Mus musculus (mouse) assessed as protrusion of eyes at 20 mg/kg, ip; assay type: organism-based; design: dose 20 mg/kg, route intraperitoneal; settings: in vivo
Mus musculus [20] = test: Toxicity in Mus musculus (mouse) assessed as skeletal muscle incoordination at 20 mg/kg, ip; assay type: organism-based, Muscle tissue; design: dose 20 mg/kg, route intraperitoneal; settings: in vivo
Mus musculus [21] = test: Toxicity in Mus musculus (mouse) assessed as tail and hair erection at 20 mg/kg, ip; assay type: organism-based; design: dose 20 mg/kg, route intraperitoneal; settings: in vivo
Mus musculus [22] = test: Toxicity in Mus musculus (mouse) assessed as epilepsy at 20 mg/kg, ip; assay type: organism-based; design: dose 20 mg/kg, route intraperitoneal; settings: in vivo
Mus musculus [23] = test: Toxicity in Mus musculus (mouse) assessed as excitation at 20 mg/kg, ip; assay type: organism-based; design: dose 20 mg/kg, route intraperitoneal; settings: in vivo
Mus musculus [24] = test: Analgesic activity in Mus musculus (mouse) assessed as writhing response at 20 mg/kg, ip relative to control; assay type: functional; settings: route intraperitoneal
Mus musculus [25] = test: Toxicity in Mus musculus (mouse) assessed as muscle twitching at 20 mg/kg, ip; assay type: organism-based, Muscle tissue; design: dose 20 mg/kg, route intraperitoneal; settings: in vivo

Sequence of 5-hydroxytryptamine receptor 1D (P28221 whole entry): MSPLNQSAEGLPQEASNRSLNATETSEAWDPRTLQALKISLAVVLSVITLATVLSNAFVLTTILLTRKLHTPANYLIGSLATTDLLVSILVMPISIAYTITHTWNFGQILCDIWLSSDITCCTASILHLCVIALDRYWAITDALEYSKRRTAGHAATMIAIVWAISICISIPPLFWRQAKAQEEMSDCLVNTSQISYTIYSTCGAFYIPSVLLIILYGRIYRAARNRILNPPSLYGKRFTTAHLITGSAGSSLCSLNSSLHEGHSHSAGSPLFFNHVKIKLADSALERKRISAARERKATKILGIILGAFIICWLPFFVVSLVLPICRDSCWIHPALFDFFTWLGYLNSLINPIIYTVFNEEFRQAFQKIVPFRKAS
Sequence of 5-hydroxytryptamine receptor 1B (P28222 whole entry): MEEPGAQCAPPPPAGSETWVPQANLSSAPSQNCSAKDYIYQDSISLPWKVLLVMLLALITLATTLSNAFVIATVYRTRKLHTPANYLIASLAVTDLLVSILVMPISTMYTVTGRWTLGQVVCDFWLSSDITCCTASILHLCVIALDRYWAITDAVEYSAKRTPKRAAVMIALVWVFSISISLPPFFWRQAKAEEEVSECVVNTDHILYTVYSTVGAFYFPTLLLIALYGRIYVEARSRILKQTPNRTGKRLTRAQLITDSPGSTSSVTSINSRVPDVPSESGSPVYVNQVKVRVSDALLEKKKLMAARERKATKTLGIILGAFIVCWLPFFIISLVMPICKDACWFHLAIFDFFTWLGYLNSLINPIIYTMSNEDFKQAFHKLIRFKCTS

SMILES: CNCCOc1c(Br)cccc1Br.O=C(O)C(=O)O
Activity (Mus musculus [3]): Toxic | Activity (Mus musculus [4]): Toxic | Activity (Mus musculus [5]): Toxic | Activity (Mus musculus [6]): Toxic | Activity (Mus musculus [7]): Toxic | Activity (Mus musculus [8]): Toxic | Activity (Mus musculus [9]): Toxic | Activity (Mus musculus [10]): Toxic | Activity (Mus musculus [11]): 100% | Activity (Mus musculus [12]): 62.5% | Activity (Mus musculus [13]): 25% | Activity (Mus musculus [14]): Toxic

SMILES: CNCCOc1ccc(Cl)cc1Cl
Ki [1]: 0.975 µM | Ki [2]: 2.75 µM

SMILES: CNC(C)COc1ccc(Br)cc1Br (racemic)
Ki [1]: 1.12 µM | Ki [2]: 2.32 µM

SMILES: CC(=O)Oc1ccccc1C(=O)O [ASPIRIN]
Activity (Mus musculus [15]): 100%

SMILES: CNC(C)COc1c(Br)cccc1Br.O=C(O)C(=O)O (racemic)
Activity (Mus musculus [3]): Toxic | Activity (Mus musculus [4]): Toxic | Activity (Mus musculus [5]): Toxic | Activity (Mus musculus [6]): Toxic | Activity (Mus musculus [7]): Toxic | Activity (Mus musculus [8]): Toxic | Activity (Mus musculus [9]): Toxic | Activity (Mus musculus [10]): Toxic | Activity (Mus musculus [11]): 100% | Activity (Mus musculus [12]): 75% | Activity (Mus musculus [13]): 0% | Ki [1]: 0.225 µM | Ki [2]: 0.0715 µM | Activity (Mus musculus [14]): Toxic

SMILES: CN1CCN(CCOc2ccc(Br)cc2Br)CC1
Ki [1]: > 10 µM | Ki [2]: 1.46 µM

SMILES: CNC(C)COc1cc(Cl)ccc1Cl.O=C(O)C(=O)O (racemic)
Activity (Mus musculus [16]): Toxic | Activity (Mus musculus [17]): Toxic | Activity (Mus musculus [18]): Toxic | Activity (Mus musculus [19]): Toxic | Activity (Mus musculus [20]): Toxic | Activity (Mus musculus [21]): Toxic | Activity (Mus musculus [22]): Toxic | Activity (Mus musculus [23]): Toxic | Activity (Mus musculus [24]): 66% | Ki [1]: 5.4 µM | Ki [2]: 6.69 µM | Activity (Mus musculus [25]): Toxic

Results, then the molecule that gave them:

Ki [1]: 0.393 µM | Ki [2]: 0.752 µM
SMILES: CNC(C)COc1cccc(Oc2ccccc2)c1 (racemic)

Ki [1]: 6.29 µM | Ki [2]: > 10 µM
SMILES: CN[C@@H](COc1cccc(Cl)c1Cl)c1ccccc1

Ki [1]: 0.599 µM | Ki [2]: 2.48 µM
SMILES: CNC(C)COc1cccc(Cl)c1Cl (racemic)

Ki [1]: 3.82 µM | Ki [2]: 3.64 µM
SMILES: CNCCOc1cc(Cl)ccc1Cl

Ki [1]: 7.79 µM
SMILES: CN[C@H](COc1cccc(Cl)c1Cl)c1ccccc1

Ki [1]: 2.87 µM | Ki [2]: 4.2 µM
SMILES: CNC(C)COc1ccc(Cl)cc1Cl (racemic)

Ki [1]: 2.03 µM | Ki [2]: 0.0364 µM
SMILES: CNCCOc1cccc(Cl)c1Cl

Ki [1]: 5.46 µM | Ki [2]: 0.912 µM
SMILES: CN1CCN([C@H](COc2cccc(Cl)c2Cl)c2ccccc2)CC1

Ki [1]: 1.49 µM | Ki [2]: 0.833 µM
SMILES: CN1CCN([C@@H](COc2cccc(Cl)c2Cl)c2ccccc2)CC1

Ki [1]: 1.24 µM | Ki [2]: 1.25 µM
SMILES: CNCCOc1ccc(Br)cc1Br
